In ChEMBL document CHEMBL3638723, “Isoxazolo-pyridine derivatives” (2014):

Biological target: T1, Gamma-aminobutyric acid receptor subunit alpha-5 (Homo sapiens, UniProt P31644)
T1 sequence (P31644 whole entry): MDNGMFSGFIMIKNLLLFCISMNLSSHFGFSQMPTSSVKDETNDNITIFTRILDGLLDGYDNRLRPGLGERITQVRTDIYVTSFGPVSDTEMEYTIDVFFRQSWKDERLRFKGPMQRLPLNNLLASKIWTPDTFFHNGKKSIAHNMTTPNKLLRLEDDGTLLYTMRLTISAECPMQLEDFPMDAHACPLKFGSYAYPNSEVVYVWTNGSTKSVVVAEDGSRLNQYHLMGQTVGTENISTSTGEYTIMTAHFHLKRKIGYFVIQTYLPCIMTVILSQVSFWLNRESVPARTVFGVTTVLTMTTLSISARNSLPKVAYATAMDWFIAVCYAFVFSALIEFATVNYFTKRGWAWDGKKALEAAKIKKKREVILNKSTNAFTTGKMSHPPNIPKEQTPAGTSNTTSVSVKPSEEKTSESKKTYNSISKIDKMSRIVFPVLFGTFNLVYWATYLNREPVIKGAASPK
Assay: Radioligand Binding Assay: Radioligand binding assays were carried out in a volume of […] (96-well plates) which contained […] of cell memebranes, [3H]flumazenil at a concentration of 1 nM for α1, α2, α3 subunits and 0.5 nM for α5 subunits and the test compound in the range of 10-10−3x10−6 M. Nonspecific binding was defined by 10−5 M diazepam and typically represented less than 5% of the total binding. Assays were incubated to equilibrium for 1 hour at 4 C. and harvested onto GF/C uni-filters (Packard) by filtration using a Packard harvester and washing with ice-cold wash buffer (50 mM Tris; pH 7.5). After drying, filter-retained radioactivity was detected by liquid scintillation counting.

Structure (SMILES) | Ki [nM]
Cc1onc(-c2ccccc2)c1COc1ccc(C(=O)NC(C)C)cn1 | 1.3
Cc1onc(-c2ccccc2)c1COc1ccc(C(=O)N2CCn3cnnc3C2)cn1 | 29.9
Cc1onc(-c2ccccc2)c1COc1ccc(C(=O)N2CC3(COC3)C2)cn1 | 15.1

More lines, now with the values ahead:

Ki [nM] | Structure (SMILES)
5.4 | Cc1onc(-c2ccc(Cl)cc2)c1COc1ccc(C(=O)N2CCOCC2)cn1
14.6 | Cc1onc(-c2ccccn2)c1COc1ccc(C(=O)N2CCOCC2)cn1
0.4 | Cc1onc(-c2ccc(Cl)cn2)c1COc1ccc(C(=O)N2CCSCC2)cn1
